Data published in ChEMBL document CHEMBL1149850, “Cytotoxic hydrolyzable tannins from Balanophora japonica” (J Nat Prod, 2008).

Tested on: HepG2
Assay: Cytotoxicity against human HepG2 cells
Type: functional, cell-based

Row | SMILES | IC50
1 | O=C(/C=C/c1ccc(O)c(O)c1)O[C@@H]1O[C@H](COC(=O)[C@H]2CC(=O)c3oc(=O)c4cc(O)c(O)c(O)c4c32)[C@@H](O)[C@H](O)[C@H]1O [BALANOPHOTANNIN D] | 17.4 µM
2 | O=C(O[C@@H]1O[C@H](COC(=O)[C@H]2CC(=O)c3oc(=O)c4cc(O)c(O)c(O)c4c32)[C@@H](O)[C@H](OC(=O)c2cc(O)c(O)c(O)c2)[C@H]1O)c1cc(O)c(O)c(O)c1 [BALANOPHOTANNIN E] | 4.22 µM
3 | O=C(O)C[C@@H]1C(=O)O[C@H]2[C@H](O)[C@@H](O)[C@H](OC(=O)/C=C/c3ccc(O)c(O)c3)O[C@@H]2COC(=O)c2cc(O)c(O)c3c2[C@H]1C(=O)O3 [BALANOPHOTANNIN F] | 48.4 µM
4 | O=C(O)C[C@@]12Oc3c(O)c(O)cc(C(=O)OC[C@H]4O[C@@H](OC(=O)/C=C/c5ccc(O)c(O)c5)[C@H](O)[C@@H](O)[C@@H]4O)c3[C@@H]1[C@H](C(=O)O)OC2=O [BALANOPHOTANNIN G] | 18 µM
5 | O=c1[nH]cc(F)c(=O)[nH]1 [FLUOROURACIL] | 18.7 µM
